This is an account of results in patent publication US7563462B2, “Methods for modulating eicosanoid metabolism” (The University of Texas MD Anderson Cancer Center, priority 2005, dated 2009).

Data set [1] has as its system PC3 cells. Description: Eicosanoid add-back to composition-treated PC3 cells. In kind it is cell-based, human.
In data set [2] the test system is PC3 cells. Description: Western blot of 5-LOX, 12-LOX and COX-2 protein in PC3 cells. In kind it is cell-based, human.
The target in the next data set is T1, 12-LOX (Homo sapiens, UniProt P18054).
T1 construct: endogenous in cells; host or cells: PC3 human prostate cancer cells
T1 sequence (P18054 1-663): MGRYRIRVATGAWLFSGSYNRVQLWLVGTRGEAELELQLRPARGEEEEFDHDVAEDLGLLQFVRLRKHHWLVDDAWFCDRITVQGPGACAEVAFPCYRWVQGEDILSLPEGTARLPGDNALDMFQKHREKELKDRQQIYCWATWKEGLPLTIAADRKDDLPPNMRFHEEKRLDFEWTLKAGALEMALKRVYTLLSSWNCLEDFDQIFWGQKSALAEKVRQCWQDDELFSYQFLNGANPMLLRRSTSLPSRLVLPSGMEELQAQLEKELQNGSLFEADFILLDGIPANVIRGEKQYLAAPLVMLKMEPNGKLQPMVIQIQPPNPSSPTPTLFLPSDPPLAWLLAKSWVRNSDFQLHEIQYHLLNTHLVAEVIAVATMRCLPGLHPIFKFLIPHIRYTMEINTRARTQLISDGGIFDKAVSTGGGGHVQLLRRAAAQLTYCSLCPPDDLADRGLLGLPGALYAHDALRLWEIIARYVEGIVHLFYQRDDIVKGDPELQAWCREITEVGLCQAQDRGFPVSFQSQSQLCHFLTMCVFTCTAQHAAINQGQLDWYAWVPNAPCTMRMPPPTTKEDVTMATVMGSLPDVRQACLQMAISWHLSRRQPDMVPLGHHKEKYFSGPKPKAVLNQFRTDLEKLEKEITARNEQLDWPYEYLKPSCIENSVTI
Description: 12-HETE levels / 12-LOX activity in PC3 cells. The class given is cell-based. Set-up: key: ↓ indicates reduction, inhibition, or downregulation; ↑ indicates enhancement, activation, or upregulation.

The test system of data set [3] is PC3 cells. Description: Cell cycle distribution by flow cytometry. In kind it is cell-based, human. The protocol:
The herbal product produces a clear G2/M accumulation of cells that is evident even at concentrations as low as 0.28 ul/ml. At higher concentrations, the G2/M phase is more evident as is a sub G0 peak indicative of apoptosis. Concomitant with the rise in numbers of cells in G2/M there is a progressive concentration-dependent fall of cells in the G1 portion of the cell cycle. Only 10% of control cells are routinely present at the G2/M phase, while treatment with 0.57 ul/ml of the inventive compositions results in greater than 40% of cells in a G2/M block. […] The G2/M percentage of cells is small (small dark shaded peak to the right in the figure. In the second plot (upper right) PC3 cells have been treated with 0.28 ul of the inventive compositions/ml tissue culture media. The size of the G2/M peak increases. The plot in the lower left (0.57 ul of the inventive compositions/ml) and in the lower right (1.14 ul/ml) show an increasing cell cycle block due to increased concentration of the inventive compositions.
A general note: Flow cytometry measures light scatter and fluorescence of single cells or particles in a stream.

Data set [4] has as its system PC3 cells. Description: Phosphoprotein analyses of PC3 cell lysates. In kind it is cell-based, human. Set-up: key to Cyclin D1 / Cyclin D3 / Bcl-XL / Bax / Bcl-2 / pAKT / survivin / pRb content / Rb content: ↓ indicates reduction, inhibition, or downregulation; ↑ indicates enhancement, activation, or upregulation. Particulars: nontoxic concentrations. The source says: The data in Table 5 were derived from phosphoprotein analyses of PC3 cell lysates after treatment with nontoxic concentrations of either the inventive compositions or baicalein, a component of Scutellaria. Proteins were separated using gel electrophoresis and then the gel was probed with monoclonal antibodies to the proteins. The antibodies could detect differences in phosphorylation status of the proteins. Gels were then quantified using a densitometer. There are many similarities in the changes in phosphorylation status signaling similar up regulation or down regulation of proteins involved in cell cycle block (e.g. cyclin D1, cyclin D3 and pRB) or proteins associated with apoptosis (e.g. surviving, Bcl-XL and Bcl-2).

Data set [5] concerns PC3 cells. Description: Cytotoxicity in PC3 cells. In kind it is cell-based, human.
Data set [6] relates to human tumor prostate (PC3). Description: Effect of 13-S-HODE on proliferation, PC3. In kind it is cell-based. To be noted: read-out: IC50 (inhibition of cancer cell line growth). The protocol: (§1) The relative ability of 13-S-HODE to inhibit prostate and colon cancer cell lines with an IC50 of about 3-4 uM. This is of importance when compared to the content of 13-S-HODE in the inventive composition. That is, as shown in Table 2 above there is sufficient 13-S-HODE within the composition to account for inhibition of cell growth. No doubt other factors within the composition also contribute to its ability to inhibit prostate and colon tumor cell growth but the ability of 13-S-HODE within the composition to be able to do this is of obvious interest.

For the next data set, the system named is colon (LS174). Description: Effect of 13-S-HODE on proliferation, LS174. To be noted: Homo sapiens, read-out: IC50 (inhibition of cancer cell line growth). The class given is cell-based. The protocol:
as §1

Data set [7] deals with lung adenocarcinoma (A549). Description: Effect of 13-S-HODE on proliferation, A549. In kind it is cell-based, human.
Where [8] appears, read: growth inhibitory concentrations of the inventive compositions.

With `CCCCC/C=C\C[C@H](O)/C=C/C=C\C/C=C\CCCC(=O)O` [12-HETE], in the data set with PC3 cells [1] (inventive compositions 1 ul/ml), the “cell proliferation after adding the eicosanoid to composition-treated PC3 cells” value (“cell proliferation” below) was “near doubling of cell proliferation”.
Turning to `CC(c1cc2ccccc2s1)N(O)C(N)=O` (stereo not drawn) [Zileuton], the “cellular content of 5-LOX protein (Western blot)” value with PC3 cells [2] was “did not produce any change in relative 5-LOX enzyme content within cells”.
Consider `O=c1cc(-c2ccccc2)oc2cc(O)c(O)c(O)c12` [Baicalein, baicalein], for which, on 12-LOX, the 12-LOX activity result is “↓”. Also, in the data set with PC3 cells [3], the Cell cycle block result was “Yes”. Moreover, in the data set on PC3 cells [4], the Bax entry is listed as “↑”, the Bcl-2 entry was “↓”, the Bcl-XL result is given as “↓” and the “Cyclin D1” value is reported as “↓”. In the data set on PC3 cells [4], the “Cyclin D3” value was “↓”, the P27 result was “Strong ↓”, the Rb content result was “↑” and the p21 result is “Strong ↓”. Besides, in the data set with PC3 cells [4], the pAKT result is recorded as “↓”, the pRb content entry was “↓” and the survivin result is given as “↓”. Further, the Cytotoxicity entry with PC3 cells [5] is reported as “Yes”.
As for `CCCCC/C=C\C/C=C\C/C=C\C=C\[C@@H](O)CCCC(=O)O` [5-HETE], in the data set with PC3 cells [1] (setting [8]), the “cell proliferation” value is listed as “failed to block cellular proliferation”.
As for `CCCCC[C@H](O)/C=C/[C@H]1[C@H](O)CC(=O)[C@@H]1C/C=C\CCCC(=O)O` [PGE2], the “cell proliferation” value in the data set on PC3 cells [1] (setting [8]) is given as “failed to block cellular proliferation”.
Usually IC50 stands for the point on the concentration scale where inhibition reaches its midpoint. Turning to `CCCCCC(O)/C=C/C=C\CCCCCCCC(=O)O` (stereo not drawn) [13-S-HODE, 13-hydroxyoctadeca-9Z, 11E-dienoic acid], the IC50 (in data set [6]; in the data set on colon (LS174)) was 3 to 4 µM each time. For the same compound, the “inhibition of cell growth” value in [7] is “not lung adenocarcinoma (A549) cell growth”.
